Common to all, as to type: biochemical
The target of one assay is T1, caspase-6 (Homo sapiens, UniProt P55212).
T1 construct: Residues 24-179 and 194-293 from caspase-6 cDNA (Origene) were cloned into pET-24b and pET-23b vectors; 6x histidine tag (C); made in house; host or cells: E. coli BL21 (DE3) pLysS
T1 sequence (P55212 24-179): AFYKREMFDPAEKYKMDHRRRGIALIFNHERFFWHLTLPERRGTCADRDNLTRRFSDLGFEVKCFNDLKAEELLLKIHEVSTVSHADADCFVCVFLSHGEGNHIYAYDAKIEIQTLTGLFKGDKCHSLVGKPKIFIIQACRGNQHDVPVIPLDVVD
T1 sequence (P55212 194-293): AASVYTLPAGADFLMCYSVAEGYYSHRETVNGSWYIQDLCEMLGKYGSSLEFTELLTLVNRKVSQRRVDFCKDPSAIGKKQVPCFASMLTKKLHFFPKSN
Briefly: Steady-state Michaelis-Menten kinetic analysis of caspase-6. The method, then:
(§1) The in vitro enzymatic caspase assays utilize synthetic tetrapeptide substrates labeled with the fluorophores Rhodamine110 (R110) or 7-amino-4-methylcoumarin (AMC) at the P1 aspartic acid (Asp) residue. All assays were performed in 384-well plates in 12 µL reaction volume consisting of enzyme, substrate and indicated concentration of inhibitor or DMSO in assay buffer (50 mM HEPES [pH 7.0], 25 mM MgSO4, 0.5 mM EGTA, 5 mM Glutathione (GSH), 0.01% Triton X-100 containing 0.1% Bovine Gamma Globulin (BGG)). All inhibitors were serially diluted in 100% DMSO prior to dilution in assay buffer and transfer to assay plate. DMSO was diluted into assay buffer similarly for blank wells (no enzyme or compound) and final DMSO concentration was 1%. The concentration of caspase-6 used in enzymatic reactions typically varied between 1–10 nM depending on substrate used. Unless otherwise indicated, substrate concentration was within 3-fold of the determined Kmapparent (5 µM (Ac-VEID)2R110 [Kmapp = 8 µM]; 5 µM (Ac-DEVD)2R110 [Kmapp = 8 µM]; 25 µM (Ac-IETD)2R110 [Kmapp = 70 µM]; 25 µM (Ac-WEHD)2R110 [Kmapp = 70 µM]; 10µM Ac-VEID-AMC [Kmapp = 16µM]; 5 µM Ac-VEID-R110 [Kmapp = 8 µM]). The concentration of substrate utilized in selectivity assays for each caspase isoform was also held as close to Kmapparent as reasonably achievable (Table S1). Caspases-3 and -7 were expressed and purified at Genentech as the catalytic domain consisting of large p20 and small p10 subunits without prodomain. For all caspase enzymatic assays, the reaction plate was incubated at room temperature for 40 minutes and then read on Envision (Perkin Elmer) fluorescent plate reader at excitation/emission wavelengths of 485/535 nm (R110) or 350/450 nm (AMC).
The endpoint fluorescent emission (RFU) in each well was plotted as a function of inhibitor concentration and the 50% inhibition (IC50) values were determined using a nonlinear least squares fit of the data to a four parameter equation using Prism 5.0 software (GraphPad Software, San Diego, CA). […] Ki values for Compound 3 were calculated using this equation: Ki = IC50/(Km/[S] +1). Concentration-response curves for each inhibitor were normalized to zero and 100% based on no enzyme or DMSO control, respectively. For steady-state kinetic analysis, initial reaction velocity (RFU/minute) was plotted against substrate concentration at each inhibitor concentration and the data was fit to a hyperbolic Michaelis-Menten model using Prism 5.0 software. Km (µM) and Vmax (RFU/minute) were calculated by using this equation: v = Vmax • [S]/Km+[S] where v = initial reaction velocity at indicated substrate concentration (S). Vmax values were normalized to zero and 100% based on no enzyme or DMSO control, respectively.

The target in the next assay is T2, caspase-3 (Homo sapiens, UniProt P42574).
T2 construct: as the catalytic domain consisting of large p20 and small p10 subunits without prodomain; made in house
T2 sequence (P42574 29-175 limits assumed): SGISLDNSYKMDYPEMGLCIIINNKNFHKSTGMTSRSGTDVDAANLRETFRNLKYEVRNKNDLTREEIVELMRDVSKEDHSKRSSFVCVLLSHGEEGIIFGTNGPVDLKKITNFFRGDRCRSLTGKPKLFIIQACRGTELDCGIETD
T2 sequence (P42574 176-277 limits assumed): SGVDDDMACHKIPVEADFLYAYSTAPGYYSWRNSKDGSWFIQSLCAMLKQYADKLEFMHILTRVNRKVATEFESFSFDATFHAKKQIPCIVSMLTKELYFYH
Briefly: Caspase-3 enzymatic assay with divalent R110 substrates. The method, then: as §1
The endpoint fluorescent emission (RFU) in each well was plotted as a function of inhibitor concentration and the 50% inhibition (IC50) values were determined using a nonlinear least squares fit of the data to a four parameter equation using Prism 5.0 software (GraphPad Software, San Diego, CA). […]

A further assay has as its target T3, caspase-7 (Homo sapiens, UniProt P55210).
T3 construct: as the catalytic domain consisting of large p20 and small p10 subunits without prodomain; made in house
T3 sequence (P55210 24-198 limits assumed): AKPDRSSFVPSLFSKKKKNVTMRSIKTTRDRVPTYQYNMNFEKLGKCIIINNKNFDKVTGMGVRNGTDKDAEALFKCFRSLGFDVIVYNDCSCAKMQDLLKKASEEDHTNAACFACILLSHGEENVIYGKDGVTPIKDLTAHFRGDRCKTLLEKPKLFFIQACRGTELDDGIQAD
T3 sequence (P55210 207-303 limits assumed): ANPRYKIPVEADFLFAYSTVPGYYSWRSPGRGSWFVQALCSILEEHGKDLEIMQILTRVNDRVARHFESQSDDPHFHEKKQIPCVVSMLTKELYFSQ
Briefly: Caspase-7 enzymatic assay with divalent R110 substrate. To be noted: caspase-7, (DEVD)2R110 substrate. The method, then:
as §1, with “The concentration of caspase-6 used in enzymatic reactions typically varied between 1–10 nM depending on substrate used.” left out, “The concentration of substrate utilized in selectivity assays for each caspase isoform was also held as close to Kmapparent as reasonably achievable (Table S1). Caspases-3 and -7 were expressed and purified at Genentech as the catalytic domain consisting of large p20 and small p10 subunits without prodomain.” left out, “(AMC). […]” for “(AMC).”

SMILES strings stand for the structures.

A word on the IC50: it is the concentration that inhibits the measured activity by half. Read a low IC50 as higher potency. Regarding `COc1ccc(-c2cc(C(=O)N[C@@H](CO)Cc3cccc(C#N)c3)co2)cc1OC` [Compound 3], the “Vmax (% of DMSO control) for (VEID)2R110” value on caspase-6 (3 nM of 3) is 77.51 % of DMSO control; on caspase-6 (10 nM of 3), 55.35 % of DMSO control; on caspase-6 (30 nM of 3), 31.09 % of DMSO control; on caspase-6 (100 nM of 3), 14.10 % of DMSO control. The mechanism of inhibition result at caspase-6 ((DEVD)2R110 substrate) and at caspase-6 ((VEID)2R110 substrate) was “uncompetitive” in each case. For the same compound, the IC50 on caspase-3 (caspase-3, (DEVD)2R110 substrate) was > 100 µM; against caspase-3 (caspase-3, (VEID)2R110 substrate), > 100 µM; at caspase-7, > 100 µM.

The values are drawn from publication PMC3515450, “Mechanistic and Structural Understanding of Uncompetitive Inhibitors of Caspase-6” (PLoS ONE, 2012).
